Assay results taken from patent US20100035871A1, “BENZOXAZINE DERIVATIVES AND USES THEREOF” (priority 2006, published 2010).

What was measured:
human 5-HT2C receptor [1] = target: T1, human 5-HT2C receptor (Homo sapiens, UniProt P28335); assay: 5-HT2C receptor binding, [125I]DOI displacement, membranes of transfected CHO cells; settings: for Ki: read-out: 5-HT2C Binding Ki avg
T1 construct: expressed in transfected cells; host or cells: CHO (Chinese Hamster Ovary) cells; membrane preparation
T1 sequence (P28335 33-458): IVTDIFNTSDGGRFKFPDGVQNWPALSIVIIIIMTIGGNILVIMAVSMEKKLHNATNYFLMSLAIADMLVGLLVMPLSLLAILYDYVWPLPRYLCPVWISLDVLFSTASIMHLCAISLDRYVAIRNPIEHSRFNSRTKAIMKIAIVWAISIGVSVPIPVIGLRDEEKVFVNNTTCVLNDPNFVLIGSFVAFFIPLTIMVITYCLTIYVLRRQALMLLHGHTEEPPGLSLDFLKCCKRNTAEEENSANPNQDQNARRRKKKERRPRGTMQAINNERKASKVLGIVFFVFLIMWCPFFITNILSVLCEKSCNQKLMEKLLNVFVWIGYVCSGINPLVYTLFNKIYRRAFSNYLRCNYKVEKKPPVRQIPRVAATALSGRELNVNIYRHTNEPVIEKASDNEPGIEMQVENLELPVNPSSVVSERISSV

human 5-HT2C receptor [2] = target: T1, human 5-HT2C receptor; assay: 5-HT2C receptor-stimulated calcium mobilization (FLIPR) in CHO cells; type: cell-based; settings: for Emax: CHO, read-out: 5-HT2C Function EMax (%); for EC50: calcium mobilization, CHO cells, read-out: 5-HT2C Function EC50

SMILES	Ki (human 5-HT2C receptor [1])	Emax (human 5-HT2C receptor [2])	EC50 (human 5-HT2C receptor [2])	Kd (human 5-HT2C receptor [1]; saturation binding with increasing concentrations of [125I] DOI, read-out: dissociation constant, KD)
NCC1CNc2cc(F)cc(-c3c(Cl)cccc3Cl)c2O1 (racemic) [Example 10, 1-[8-(2,6-Dichlorophenyl)-6-fluoro-3,4-dihydro-2H-1,4-benzoxazin-2-yl]methanamine]	0.9 nM	70%	5 nM	
NC[C@@H]1CNc2cccc(-c3ccccc3C(F)(F)F)c2O1 [Example 41, 1-{(2R)-8-[2-(trifluoromethyl)phenyl]-3,4-dihydro-2H-1,4-benzoxazin-2-yl}methanamine]	16.6 nM	62%	10.5 nM	
COc1ccc(-c2cc(F)cc3c2NC(CN)CO3)c(Cl)c1 (racemic) [Example 59, 1-[5-(2-chloro-4-methoxyphenyl)-7-fluoro-3,4-dihydro-2H-1,4-benzoxazin-3-yl]methanamine]	36.9 nM	59%	138 nM	
NCC1CNc2cccc(-c3ccc(C(F)(F)F)cc3C(F)(F)F)c2O1 (racemic) [Example 23, 1-{8-[2,4-Bis(trifluoromethyl)phenyl]-3,4-dihydro-2H-1,4-benzoxazin-2-yl}methanamine]	39.5 nM	79%	367 nM	
Cc1cc(Cl)ccc1-c1cccc2c1OC(CN)CN2C (racemic) [Example 2, 1-[8-(4-Chloro-2-methylphenyl)-4-methyl-3,4-dihydro-2H-1,4-benzoxazin-2-yl]methanamine]	14.8 nM	70%	280 nM	
NCC1CNc2cccc(-c3ccc(Cl)cc3Cl)c2O1 (racemic) [Example 15, 1-[8-(2,4-Dichlorophenyl)-3,4-dihydro-2H-1,4-benzoxazin-2-yl]methanamine]	15.9 nM	70%	8 nM	
NCC1COc2cc(F)cc(-c3ccccc3C(F)(F)F)c2N1 (racemic) [Example 55, 1-{7-fluoro-5-[2-(trifluoromethyl)phenyl]-3,4-dihydro-2H-1,4-benzoxazin-3-yl}methanamine]	19.3 nM	54%	331 nM	
NCC1CNc2cccc(-c3cc(Cl)ccc3Cl)c2O1 (racemic) [Example 14, 1-[8-(2,5-Dichlorophenyl)-3,4-dihydro-2H-1,4-benzoxazin-2-yl]methanamine]	6.4 nM	60%	12 nM	
Cc1ccccc1-c1cccc2c1OC(CN)CN2C (racemic) [Example 8, 1-[4-Methyl-8-(2-methylphenyl)-3,4-dihydro-2H-1,4-benzoxazin-2-yl]methanamine]	26.8 nM	70%	82 nM	
COc1ccc(-c2cccc3c2OC(CN)CN3)c(C)c1 (racemic) [Example 24, 1-[8-(4-Methoxy-2-methylphenyl)-3,4-dihydro-2H-1,4-benzoxazin-2-yl]methanamine]	14.9 nM	75%	25 nM	
COc1ccc(-c2cccc3c2O[C@@H](CN)CN3)c(C)c1 [Example 50, 1-[(2S)-8-(4-methoxy-2-methylphenyl)-3,4-dihydro-2H-1,4-benzoxazin-2-yl]methanamine]	33.3 nM	74%	0.72 nM	
CN1CC(CN)Oc2c(-c3cc(Cl)ccc3Cl)cccc21 (racemic) [Example 13, 1-[8-(2,5-Dichlorophenyl)-4-methyl-3,4-dihydro-2H-1,4-benzoxazin-2-yl]methanamine]	12.8 nM	70%	131 nM	
Cc1ccccc1-c1cccc2c1OC(CN)CN2 (racemic) [Example 17, 1-[8-(2-Methylphenyl)-3,4-dihydro-2H-1,4-benzoxazin-2-yl]methanamine]	31 nM	72%	101 nM	
NCC1CNc2cccc(-c3ccc(Cl)cc3C(F)(F)F)c2O1 (racemic) [Example 18, 1-{8-[4-Chloro-2-(trifluoromethyl)phenyl]-3,4-dihydro-2H-1,4-benzoxazin-2-yl}methanamine]	7.9 nM	56%	109 nM	
Cc1ccc(-c2cc(Cl)cc3c2NC(CN)CO3)c(C(F)(F)F)c1 (racemic) [Example 31, 1-{7-chloro-5-[4-methyl-2-(trifluoromethyl)phenyl]-3,4-dihydro-2H-1,4-benzoxazin-3-yl}methanamine]	30.5 nM	60%	876 nM	
NCC1CN(CC2CC2)c2cccc(-c3ccccc3Cl)c2O1 (racemic) [Example 12, 1-[8-(2-Chlorophenyl)-4-(cyclopropylmethyl)-3,4-dihydro-2H-1,4-benzoxazin-2-yl]methanamine]	22.7 nM	40%	166 nM	
CN1CC(CN)Oc2c(-c3ccc(Cl)cc3Cl)cccc21 (racemic) [Example 3, 1-[8-(2,4-Dichlorophenyl)-4-methyl-3,4-dihydro-2H-1,4-benzoxazin-2-yl]methanamine]	13.1 nM	70%	122 nM	
COc1ccc(-c2cccc3c2OC(CN)CN3C)cc1 (racemic) [Example 6, 1-[8-(4-Methoxyphenyl)-4-methyl-3,4-dihydro-2H-1,4-benzoxazin-2-yl]methanamine]	12.1 nM	80%	70 nM	

SMILES	Ki (human 5-HT2C receptor [1])	Emax (human 5-HT2C receptor [2])	EC50 (human 5-HT2C receptor [2])	Kd (human 5-HT2C receptor [1]; saturation binding with increasing concentrations of [125I] DOI, read-out: dissociation constant, KD)
COc1ccc(-c2cc(Cl)cc3c2NC(CN)CO3)c(Cl)c1 (racemic) [Example 32, 1-[7-chloro-5-(2-chloro-4-methoxyphenyl)-3,4-dihydro-2H-1,4-benzoxazin-3-yl]methanamine]	29.5 nM	57%	1010 nM	
COc1ccc(-c2cccc3c2O[C@@H](CN)CN3)c(Cl)c1 [Example 52, 1-[(2S)-8-(2-chloro-4-methoxyphenyl)-3,4-dihydro-2H-1,4-benzoxazin-2-yl]methanamine]	9.05 nM	78%	0.17 nM	
NCC1CNc2cccc(-c3ccccc3Cl)c2O1 (racemic) [Example 16, 1-[8-(2-Chlorophenyl)-3,4-dihydro-2H-1,4-benzoxazin-2-yl]methanamine]	14 nM	70%	3 nM	
NC[C@H]1CNc2cccc(-c3ccccc3Cl)c2O1 [Example 39, 1-[(2S)-8-(2-chlorophenyl)-3,4-dihydro-2H-1,4-benzoxazin-2-yl]methanamine]	14.8 nM	60%	6.87 nM	
NCC1COc2cc(F)cc(-c3ccccc3Cl)c2N1 (racemic) [Example 57, 1-[5-(2-chlorophenyl)-7-fluoro-3,4-dihydro-2H-1,4-benzoxazin-3-yl]methanamine]	155 nM			
COc1ccc(-c2cc(F)cc3c2NC(CN)CO3)c(C)c1 (racemic) [Example 56, 1-[7-fluoro-5-(4-methoxy-2-methylphenyl)-3,4-dihydro-2H-1,4-benzoxazin-3-yl]methanamine]	160 nM			
Cc1cc(Cl)ccc1-c1cc(Cl)cc2c1NC(CN)CO2 (racemic) [Example 35, 1-[7-chloro-5-(4-chloro-2-methylphenyl)-3,4-dihydro-2H-1,4-benzoxazin-3-yl]methanamine]	173 nM			
COc1ccc(-c2cc(Cl)cc3c2N(C)C(CN)CO3)c(C)c1 (racemic) [Example 28, 1-[7-chloro-5-(4-methoxy-2-methylphenyl)-4-methyl-3,4-dihydro-2H-1,4-benzoxazin-3-yl]methanamine]	1120 nM			
COc1ccc(-c2cccc3c2O[C@H](CN)CN3)c(C)c1 [Example 44, 1-[(2R)-8-(4-methoxy-2-methylphenyl)-3,4-dihydro-2H-1,4-benzoxazin-2-yl]methanamine]	143 nM			
NCC1COc2cc(Cl)cc(-c3ccccc3)c2N1 (racemic) [Example 29, 1-(7-chloro-5-phenyl-3,4-dihydro-2H-1,4-benzoxazin-3-yl)methanamine]	421 nM			
COc1ccc(-c2cccc3c2O[C@H](CN)CN3)c(Cl)c1 [Example 46, 1-[(2R)-8-(2-chloro-4-methoxyphenyl)-3,4-dihydro-2H-1,4-benzoxazin-2-yl]methanamine]	131 nM			
COc1ccc(-c2cc(F)cc3c2NC(CN)CO3)cc1 (racemic) [Example 61, 1-[7-fluoro-5-(4-methoxyphenyl)-3,4-dihydro-2H-1,4-benzoxazin-3-yl]methanamine]	380 nM			
NCC1COc2cc(Cl)cc(-c3ccc(C(F)(F)F)cc3C(F)(F)F)c2N1 (racemic) [Example 38, 1-{5-[2,4-bis(trifluoromethyl)phenyl]-7-chloro-3,4-dihydro-2H-1,4-benzoxazin-3-yl}methanamine]	287 nM			
Cc1cc(Cl)ccc1-c1cccc2c1O[C@@H](CN)CN2 [Example 48, 1-[(2S)-8-(4-chloro-2-methylphenyl)-3,4-dihydro-2H-1,4-benzoxazin-2-yl]methanamine]	99.3 nM			
COc1ccc(-c2cccc3c2O[C@@H](CN)CN3)cc1 [Example 51, 1-[(2S)-8-(4-methoxyphenyl)-3,4-dihydro-2H-1,4-benzoxazin-2-yl]methanamine]	136 nM			
NC[C@H]1CNc2cccc(-c3ccccc3F)c2O1 [Example 49, 1-[(2S)-8-(2-fluorophenyl)-3,4-dihydro-2H-1,4-benzoxazin-2-yl]methanamine]	143 nM			
COc1cc(CC(C)N)c(OC)cc1I (stereo not shown) [[^125I] DOI, reference compound]				0.4 nM
